Measurements as given in patent US6218393A, “Anthranilic acid derivatives as multi drug resistance modulators” (priority 1997, dated 2001).

Columns and labels:
[1] = system: AR 1.0 cells; test: Drug accumulation assay: daunorubicin accumulation in AR 1.0 cells; format: cell-based; details: Mus musculus, 100% = accumulation with verapamil 100 μM, 1 hr, 37° C.
Description: (§1) The EMT6 mouse mammary carcinoma cell line and the MDR resistant subline AR 1.0 were cultured in RPMI 1640 medium containing 10% foetal calf serum and 2 mM glutamine at 37° C. in 5% CO2. Cells were passaged between 1 in 200 and 1 in 2000 in the case of the parental cell line and between 1 in 20 and 1 in 200 in the case of the MDR resistant subline, after trypsinisation (0.25% trypsin, 0.2 gl^-1, EDTA).
AR 1.0 cells were seeded 48 hours prior to assay into 96 well opaque culture plates (Canberra Packard).

[2] = system: AR 1.0 cells; test: Potentiation index with doxorubicin titration; format: cell-based, mouse; details: for Potentiation Index at RMA concentration 10 nM: Table C1, RMA 10 nM; for Potentiation Index at RMA concentration 30 nM: Table C1, RMA 30 nM; for Potentiation Index at RMA concentration 50 nM: Table C1, RMA 50 nM; for Potentiation Index at RMA concentration 100 nM: Table C1, RMA 100 nM
Description: as §1, with “EDTA). […]” for “EDTA).”
(b) Cells were cultured for four days with a titration of doxorubicin (0.263 nM-17.24 μM) in the presence of a fixed concentration of each compound. Proliferation was quantified as described by Skehen et al, loc cit. The IC50 (concentration required to reduce proliferation to 50% of the untreated controls) for doxorubicin alone and with each compound were derived and used to calculate the potentiation index (PI): [formula]

SMILES	IC50 [1] [nM]	Potentiation Index at RMA concentration 10 nM [2]	Potentiation Index at RMA concentration 30 nM [2]	Potentiation Index at RMA concentration 50 nM [2]	Potentiation Index at RMA concentration 100 nM [2]
COc1cc2c(cc1OC)CN(CCOc1ccc(NC(=O)c3ccccc3NC(=O)c3cnc4ccccc4n3)cc1)CC2 [compound 9632, Quinoxaline-2-carboxylic acid (2-{4-[2-(6,7-dimethoxy-3,4-dihydro-1H-isoquinolin-2-yl)-ethoxy]-phenylcarbamoyl}-phenyl)-amide]	431	1.1	2.1	2.7	8
COc1cc2c(cc1OC)CN(CCc1cccc(NC(=O)c3ccccc3NC(=O)c3cnc4ccccc4c3)c1)CC2 [compound 9633, Quinoline-3-carboxylic acid (2-{3-[2-(6,7-dimethoxy-3,4-dihydro-1H-isoquinolin-2-yl)-ethyl]-phenylcarbamoyl}-phenyl)-amide]	593	1.0	1.3	3.4	13.7
COc1cc2c(cc1OC)CN(CCc1ccc(NC(=O)c3ccccc3NC(=O)c3csc(C)n3)cc1)CC2 [compound 9635, 2-Methyl-thiazole-4-carboxylic acid (2-{4-[2-(6,7-dimethoxy-3,4-dihydro-1H-isoquinolin-2-yl)-ethyl]-phenylcarbamoyl}-phenyl)-amide]	669		1.3	2	7
COc1cc2c(cc1OC)CN(CCc1ccc(NC(=O)c3ccccc3NC(=O)c3coc(C)n3)cc1)CC2 [compound 9638, 2-Methyl-oxazole-4-carboxylic acid (2-{4-[2-(6,7-dimethoxy-3,4-dihydro-1H-isoquinolin-2-yl)-ethyl]-phenylcarbamoyl}-phenyl)-amide]	552		1.1	1.5	2.6
CCCCOc1ccc(CN(C)CCc2ccc(NC(=O)c3ccccc3NC(=O)c3cnc4ccccc4c3)cc2)cc1OC [compound 9642, Quinoline-3-carboxylic acid [2-(4-{2-[(4-butoxy-3-methoxy-benzyl)-methyl-amino]-ethyl}-phenylcarbamoyl)-phenyl]-amide]	341	1.0	1.2	2.5	14
CN(CCc1ccc(NC(=O)c2ccccc2NC(=O)c2cnc3ccccc3c2)cc1)Cc1ccc(F)c(F)c1 [compound 9643, Quinoline-3-carboxylic acid [2-(4-{2-[(3,4-difluoro-benzyl)-methyl-amino]-ethyl}-phenylcarbamoyl)-phenyl]-amide]	425	1.0	1.5	2.4	6.7
COc1cc(CN(C)CCc2ccc(NC(=O)c3ccccc3NC(=O)c3cnc4ccccc4c3)cc2)ccc1OC(C)C [compound 9646, Quinoline-3-carboxylic acid [2-(4-{2-[(4-isopropoxy-3-methoxy-benzyl)-methyl-amino]-ethyl}-phenylcarbamoyl)-phenyl]-amide]	295	1.0	1.1	1.3	4.8
CN(CCc1ccc(NC(=O)c2ccccc2NC(=O)c2cnc3ccccc3c2)cc1)Cc1ccc(N(C)C)cc1 [compound 9655, Quinoline-3-carboxylic acid [2-(4-{2-[(4-dimethylamino-benzyl)-methyl-amino]-ethyl}-phenylcarbamoyl)-phenyl]-amide]	557	1.8	13	37	65

Stronger by IC50 [1], values ahead:

IC50 [1] [nM]	SMILES	Potentiation Index at RMA concentration 10 nM [2]	Potentiation Index at RMA concentration 30 nM [2]	Potentiation Index at RMA concentration 50 nM [2]	Potentiation Index at RMA concentration 100 nM [2]
184	CCN(CCc1ccc(NC(=O)c2ccccc2NC(=O)c2cnc3ccccc3c2)cc1)Cc1ccc(OC)c(OC)c1 [compound 9636]	2.6	22	46	131
108	COc1ccc(CN(C)CCc2ccc(NC(=O)c3ccccc3NC(=O)c3cnc4ccccc4c3)cc2)cc1OC(C)C [compound 9639, Quinoline-3-carboxylic acid [2-(4-{2-[(3-isopropoxy-4-methoxy-benzyl)-methyl-amino]-ethyl}-phenylcarbamoyl)-phenyl]-amide]	2.6	34	78	136
194	COc1cc(CN(C)CCc2ccc(NC(=O)c3ccccc3NC(=O)c3cnc4ccccc4c3)cc2)cc(OC)c1OC [compound 9640, Quinoline-3-carboxylic acid [2-(4-{2-[methyl-(3,4,5-trimethoxy-benzyl)-amino]-ethyl}-phenylcarbamoyl)-phenyl]-amide]	1	2.5	4.6	23.8
1.9	CCCCN(CCc1ccc(NC(=O)c2ccccc2NC(=O)c2cnc3ccccc3c2)cc1)Cc1ccc(OC)c(OC)c1 [compound 9641, Quinoline-3-carboxylic acid [2-(4-{2-[butyl-(3,4-dimethoxy-benzyl)-amino]-ethyl}-phenylcarbamoyl)-phenyl]-amide]	1.5	17	46	162
179	CN(CCc1ccc(NC(=O)c2ccccc2NC(=O)c2cnc3ccccc3c2)cc1)Cc1ccc2c(c1)OCCO2 [compound 9645, Quinoline-3-carboxylic acid [2-(4-{2-[(2,3-dihydro-benzo [1,4]dioxin-6-ylmethyl)-methyl-amino]-ethyl}-phenylcarbamoyl)-phenyl]-amide]	1.0	1.3	2.1	7.2
33	COc1ccc(CN(C)CCc2ccc(NC(=O)c3ccccc3NC(=O)c3cnc4ccccc4c3)cc2)cc1O [compound 9647, Quinoline-3-carboxylic acid [2-(4-{2-[(3-hydroxy-4-methoxy-benzyl)-methyl-amino]-ethyl}-phenylcarbamoyl)-phenyl]-amide]			1	6
38	COc1cc2c(cc1OC)CN(CC(O)COc1ccc(NC(=O)c3ccccc3NC(=O)c3cnc4ccccc4c3)cc1)CC2 (centres unmarked) [compound 9648, Quinoline-3-carboxylic acid (2-{4-[3-(6,7-dimethoxy-3,4-dihydro-1H-isoquinolin-2-yl)-2-hydroxy-propoxy]-phenylcarbamoyl}-phenyl)-amide]	16	34		
188	COc1cc(CN(C)CCc2ccc(NC(=O)c3ccccc3NC(=O)c3cnc4ccccc4c3)cc2)ccc1O [compound 9649, Quinoline-3-carboxylic acid [2-(4-{2-[(4-hydroxy-3-methoxy-benzyl)-methyl-amino]-ethyl}phenylcarbamoyl)-phenyl]-amide]	53	46	60	66
61	COc1cc2c(cc1OC)CN(CCc1ccc(NC(=O)c3ccccc3NC(=O)c3cnc4ccccc4c3)c(C)c1)CC2 [compound 9650, Quinoline-3-carboxylic acid (2-{4-[2-(6,7-dimethoxy-3,4-dihydro-1H-isoquinolin-2-yl)-ethyl]-2-methyl-phenylcarbamoyl}-phenyl)-amide]	3	3	14	33
71	COc1cc(CCN2CCc3cc(OC)c(OC)cc3C2)ccc1NC(=O)c1ccccc1NC(=O)c1cnc2ccccc2c1 [compound 9651, Quinoline-3-carboxylic acid (2-{4-[2-(6,7-dimethoxy-3,4-dihydro-1H-isoquinolin-2-yl)-ethyl]-2-methoxy-phenylcarbamoyl}-phenyl)-amide]			1.1	2.2
64	COc1ccc(CN(C)Cc2ccc(NC(=O)c3ccccc3NC(=O)c3cnc4ccccc4c3)cc2)cc1OC(C)C [compound 9652, Quinoline-3-carboxylic acid [2-(4-{[(3-isopropoxy-4-methoxy-benzyl)-methyl-amino]-methyl}-phenylcarbamoyl)-phenyl]-amide]		1.2	1.8	7.6
